From patent US7208140B2, “Trimeric macrocyclic substituted benzene derivatives” (Schering Aktiengesellschaft, priority 2003, dated 2007)
Values joined by “and” are separate entries in the source; they are usually repeats but may differ in a detail not shown here. Identical values can stand only once.

What was measured:
[1] = Distribution coefficient in 1-butanol and tris-HCl buffer; type: physicochemical; details: for Distribution Coefficient of Butanol/Water: 1-butanol and tris-HCl buffer at pH 7.6
Description: The distribution coefficient of Example 3F was determined in comparison to Gadovist, iopromide and iotrolan in 1-butanol and tris-HCl buffer at pH 7.6.

[2] = tested on: Epithelial cell line MDCK; assay: Neutral red test of cell viability in epithelial cells of the distal renal tubule; type: cell-based, canine; details: 50% reduction of cell viability after 24 hours
Description: To determine the IC-50, the neutral red test was used in epithelial cells of the distal renal tubule. In addition, this test is very helpful for predicting with high accuracy the LD-50 values of newly synthesized compounds.
Epithelial cell line MDCK of the renal distal renal tubule of a canine kidney (ECACC No. 85011435) was incubated from 10,000 cells/well in Alpha MEM Eagle (10% fetal bovine serum) at 37° C. and 5% CO2, 95% atmospheric humidity for 20 hours with various Examples 1B, 3F and 5F. Neutral red was used as an indicator for cell viability and for measuring lyosomal integrity and employed to determine those contrast medium concentrations in which a 50% reduction of cell viability (IC-50) occurred after 24 hours.
Four independent replicates were tested for each concentration of contrast medium. […] The latter is a reference compound in clinical practice and a contrast medium with proven excellent compatibility. The highest compatibility was found for Example 3F with 1170 μmol of I eq/ml.

[3] = tested on: Male Wistar rats; assay: CT studies (computer tomography) of rats after intravenous injection; type: in vivo, rat; details: i.v.
Description: By way of example, the suitability of the described compound class was examined in Example 1B with the aid of computer tomography (CT) of rats. For the CT studies, a Siemens Somatom CR was available. The 5-second image was prepared with a layer thickness of 2 mm and a tube voltage of 125 kV. Substance 1B was formulated as an aqueous solution at a concentration of 0.17 mol/l (corresponds to 145 mg (1+Gd)/ml.
Male Wistar rats (400 g of body weight) were scanned before (FIG. 1a) and after intravenous injection (FIG. 1) of 1B in a dose of 0.15 mmol/kg (corresponds to 127 mg of (I+Gd)/kg).
This early phase reflects the blood perfusion of the renal cortex.

[4] = tested on: Wistar rats; assay: MRT studies (angiography and organ visualization) of rats after intravenous injection; type: in vivo, rat; details: i.v.
Description: The same substance (IB) was examined with the aid of magnetic resonance tomography (MRT) as a contrast medium.
The MRT studies were performed on a 1.5 T device (Siemens Symphonie with 40 mT/m gradients). 400 g Wistar rats were examined with T1-weighted image sequences (angiography TR 2.54 ms, TE 1.12 ms und α=40° or organ visualization TR 54 ms, TE 4.8 ms and α=40°). The angiography (MRA, FIG. 3) was from 0–60 seconds p.i., and the organ visualization (FIGS. 4a and b) was prepared 15 minutes after the injection. Substance 1B was formulated as an aqueous solution at a concentration of 0.17 mol/l (corresponds to 0.5 mol of Gd/l) and was intravenously injected in a dose of 0.03 mmol of substance or 0.1 mmol of Gd/kg.

Row | Distribution Coefficient of Butanol/Water [1] | Compound | IC50 [2] | other results
1 | 0.006 ± 0.0007 | O=C([O-])CN1CCN(CC(=O)[O-])CCN([C@H](CO)[C@H](O)CO)CCN(CC(=O)[O-])CC1.[Gd+3] (racemic) [Gadobutrol, reference compound] | 153 μmol of I eq/ml | –
2 | – | CC(C(=O)NCC(=O)NCCNC(=O)c1c(I)c(C(=O)NCCNC(=O)CNC(=O)C(C)N2CCN(CC(=O)[O-])CCN(CC(=O)[O-])CCN(CC(=O)[O-])CC2)c(I)c(C(=O)NCCNC(=O)CNC(=O)C(C)N2CCN(CC(=O)[O-])CCN(CC(=O)[O-])CCN(CC(=O)[O-])CC2)c1I)N1CCN(CC(=O)[O-])CCN(CC(=O)[O-])CCN(CC(=O)[O-])CC1.[Gd+3].[Gd+3].[Gd+3] (stereo not drawn) [Example 1B, 1,3,5-Triiodotrimesic acid-N,N,N-tris-(3,6-diaza-4,7-dioxo-8-methyloctane-1,8-diyl-{10-[1,4,7-tris-(carboxylatomethyl)-1,4,7,10-tetraazacyclododecanyl, Gd-complex]})amide] | 930 μmol of I eq/ml | CT contrasting of vessels and renal cortex (early phase) ([3]; 0.15 mmol/kg (127 mg of (I+Gd)/kg), 125 kV): very clear contrasting of the blood-conveying vessels (A) and the renal cortex (N); renal excretion (contrasting of renal pelvis in CT) ([3]; 0.15 mmol/kg, 15 minutes later): quick renal excretion; MRA visualization of arteries and heart ([4]; 0.03 mmol of substance or 0.1 mmol of Gd/kg, 1.5 T, 0-60 seconds p.i.): excellent ability to visualize the large arteries (aorta, femoral artery) as well as the heart; MRT whole-body image, organ contrasting ([4]; 0.1 mmol of Gd/kg, 1.5 T, 15 minutes after the injection): clear contrasting of liver (L) as well as kidneys; renal elimination (ureter visualized in MRT) ([4]; 0.1 mmol of Gd/kg, 15 minutes after the injection): quick renal elimination
3 | 0.0002 and 0.0002 ± 0.0001 | O=C([O-])CN1CCN(CC(=O)[O-])CCN(CC(=O)NCCNC(=O)c2c(I)c(C(=O)NCCNC(=O)CN3CCN(CC(=O)[O-])CCN(CC(=O)[O-])CCN(CC(=O)[O-])CC3)c(I)c(C(=O)NCCNC(=O)CN3CCN(CC(=O)[O-])CCN(CC(=O)[O-])CCN(CC(=O)[O-])CC3)c2I)CCN(CC(=O)[O-])CC1.[Gd+3].[Gd+3].[Gd+3] [Example 3F, 2,4,6-Triiodotrimesic acid-N,N,N-tris-(3-aza-4-oxopentane-1,5-diyl-{10-[1,4,7-tris-(carboxylatomethyl)-1,4,7,10-tetrazacyclododecanyl, Gdcomplex]})amide] | 1170 μmol of I eq/ml | –
4 | – | O=C([O-])CN1CCN(CC(=O)[O-])CCN(CC(O)CNC(=O)c2c(I)c(C(=O)NCC(O)CN3CCN(CC(=O)[O-])CCN(CC(=O)[O-])CCN(CC(=O)[O-])CC3)c(I)c(C(=O)NCC(O)CN3CCN(CC(=O)[O-])CCN(CC(=O)[O-])CCN(CC(=O)[O-])CC3)c2I)CCN(CC(=O)[O-])CC1.[Gd+3].[Gd+3].[Gd+3] (stereo not drawn) [Example 5G, 1,3.5-Triiodotrimesic acid-N,N,N-tris-(2-hydroxypropane-1,3-diyl-{10-[1,4,7-tris-(carboxylatomethyl)-1,4,7,10-tetraazacyclododecanyl]}, Gdcomplex)amide] | 788 μmol of I eq/ml | –
5 | 0.051 ± 0.003 | COCC(=O)Nc1c(I)c(C(=O)NCC(O)CO)c(I)c(C(=O)N(C)CC(O)CO)c1I (stereo not drawn) [Iopromide] | – | distribution coefficient of butanol/water relative to Example 3F ([1]; 0.051 vs. 0.0002): ≤ 255 ×; Distribution Coefficient of Butanol/Water ([1]; listed as lopromide): 0.051

Row | Compound | Distribution Coefficient of Butanol/Water [1] | IC50 [2] | other results
6 | CN(C(=O)CC(=O)N(C)c1c(I)c(C(=O)NC(CO)C(O)CO)c(I)c(C(=O)NC(CO)C(O)CO)c1I)c1c(I)c(C(=O)NC(CO)C(O)CO)c(I)c(C(=O)NC(CO)C(O)CO)c1I (stereo not drawn) [Iotrolan] | 0.0065 ± 0.002 | – | –
